According to the OligoGym collection:
Values joined by “and” are separate entries in the source; they are usually repeats but may differ in a detail not shown here. Identical values can stand only once. After the bases stand the sugars from the 5' end (letter, count) and the backbone: PS all phosphorothioate, else s phosphorothioate and o phosphodiester by linkage. Methylation of C is not given here. e = 2'-O-(2-methoxyethyl) (MOE); k = constrained ethyl (cEt); d = 2'-deoxy (DNA)

Target: SOD1
Settings: ASO

GGTCCTGGTTCCGAGGACTG (sugars e5 d10 e5, PS)
target mRNA inhibition (HepG2, 4 µM): 14%

GGTTCCGAGGACTGCAACGG (sugars e5 d10 e5, PS)
target mRNA inhibition (HepG2, 4 µM): 35%

GGTTTTTATTCACAGGC (sugars e2 k2 d8 k2 e3, PS)
target mRNA inhibition (HepG2, 5 µM): 38%

GTCACACAATTACACTT (sugars e2 k2 d9 k2 e2, PS)
target mRNA inhibition (HepG2, 5 µM): 35%

GTCATTGAAACAGACAT (sugars e2 k2 d8 k2 e3, PS)
target mRNA inhibition (HepG2, 5 µM): 2%

GTCTCCAACATGCCTCT (sugars e3 k2 d7 k2 e3, PS)
target mRNA inhibition (HepG2, 3 µM): 8%

GTCTGGCAAAATACAGG (sugars e2 k2 d8 k2 e3, PS)
target mRNA inhibition (HepG2, 5 µM): 30%

GTGAGGACCTGCACTGGTAC (sugars e5 d10 e5, linkages s1 o3 s11 o3 s1)
target mRNA inhibition (A431, 0.12 µM): 0% | target mRNA inhibition (A431, 0.6 µM): 17% | target mRNA inhibition (A431, 3 µM): 0% | target mRNA inhibition (A431, 15 µM): 16% | target mRNA inhibition (HepG2, 0.222 µM): 0% | target mRNA inhibition (HepG2, 0.667 µM): 16% | target mRNA inhibition (HepG2, 2 µM): 70% | target mRNA inhibition (HepG2, 3 µM): 50% | target mRNA inhibition (HepG2, 6 µM): 35%

GTGATCATAAATCAGTT (sugars e2 k2 d9 k2 e2, PS)
target mRNA inhibition (HepG2, 5 µM): 48%

GTGCCATACAGGGTTTT (sugars e3 k2 d7 k2 e3, PS)
target mRNA inhibition (HepG2, 3 µM): 7%

GTGTTTAATGTTTATCA (sugars e2 k2 d8 k2 e3, PS)
target mRNA inhibition (HepG2, 0.1875 µM): 44% | target mRNA inhibition (HepG2, 0.75 µM): 71% | target mRNA inhibition (HepG2, 3 µM): 83% | target mRNA inhibition (HepG2, 5 µM): 86% | target mRNA inhibition (HepG2, 12 µM): 84%

GTGTTTAATGTTTATCA (sugars e2 k2 d9 k2 e2, PS)
target mRNA inhibition (HepG2, 0.1875 µM): 42% | target mRNA inhibition (HepG2, 0.75 µM): 68% | target mRNA inhibition (HepG2, 3 µM): 86% | target mRNA inhibition (HepG2, 5 µM): 86% | target mRNA inhibition (HepG2, 12 µM): 89%

GTGTTTAATGTTTATCA (sugars e2 k2 d9 k2 e2, linkages s1 o3 s9 o1 s2)
target mRNA inhibition (A431, 0.12 µM): 22% | target mRNA inhibition (A431, 0.6 µM): 57% | target mRNA inhibition (A431, 3 µM): 73% | target mRNA inhibition (A431, 15 µM): 84% | target mRNA inhibition (HepG2, 0.222 µM): 58% | target mRNA inhibition (HepG2, 0.667 µM): 68% | target mRNA inhibition (HepG2, 2 µM): 96% | target mRNA inhibition (HepG2, 6 µM): 83%

GTGTTTAATGTTTATCAG (sugars e5 d8 e5, linkages s1 o3 s9 o2 s2)
target mRNA inhibition (A431, 0.12 µM): 1% | target mRNA inhibition (A431, 0.6 µM): 15% | target mRNA inhibition (A431, 3 µM): 36% | target mRNA inhibition (A431, 15 µM): 50% | target mRNA inhibition (HepG2, 0.222 µM): 20% | target mRNA inhibition (HepG2, 0.667 µM): 43% | target mRNA inhibition (HepG2, 2 µM): 56% | target mRNA inhibition (HepG2, 6 µM): 81%

GTTTAATGTTTATCAG (sugars ekddddddddekekee, linkages s1 o1 s8 o3 s2)
target mRNA inhibition (A431, 0.12 µM): 2% | target mRNA inhibition (A431, 0.6 µM): 19% | target mRNA inhibition (A431, 3 µM): 33% | target mRNA inhibition (A431, 15 µM): 62% | target mRNA inhibition (HepG2, 0.222 µM): 44% | target mRNA inhibition (HepG2, 0.667 µM): 63% | target mRNA inhibition (HepG2, 2 µM): 82% | target mRNA inhibition (HepG2, 6 µM): 94%

GTTTAATGTTTATCAGG (sugars e2 k2 d9 k2 e2, PS)
target mRNA inhibition (HepG2, 0.1875 µM): 67% | target mRNA inhibition (HepG2, 0.75 µM): 84% | target mRNA inhibition (HepG2, 3 µM): 94% | target mRNA inhibition (HepG2, 5 µM): 92% | target mRNA inhibition (HepG2, 12 µM): 96%

GTTTATTGGGCGATCCC (sugars e2 k2 d8 k2 e3, PS)
target mRNA inhibition (HepG2, 4 µM): 54%

GTTTATTGGGCGATCCC (sugars e3 k2 d7 k2 e3, PS)
target mRNA inhibition (HepG2, 3 µM): 18%

GTTTTCTGGATAGAGGATTA (sugars e5 d10 e5, PS)
target mRNA inhibition (HepG2, 5 µM): 28% and 39%

TAAGATTACAGTGTTTA (sugars e3 k2 d7 k2 e3, PS)
target mRNA inhibition (HepG2, 3 µM): 54%

TAATGTTTATCAGGATA (sugars e2 k2 d8 k2 e3, PS)
target mRNA inhibition (HepG2, 0.1875 µM): 48% | target mRNA inhibition (HepG2, 0.75 µM): 78% | target mRNA inhibition (HepG2, 3 µM): 91% | target mRNA inhibition (HepG2, 4 µM): 90% | target mRNA inhibition (HepG2, 12 µM): 95%

TAATGTTTATCAGGATA (sugars e2 k2 d8 k2 e3, linkages s1 o2 s9 o2 s2)
target mRNA inhibition (A431, 0.12 µM): 0% | target mRNA inhibition (A431, 0.6 µM): 38% | target mRNA inhibition (A431, 3 µM): 54% | target mRNA inhibition (A431, 15 µM): 68% | target mRNA inhibition (HepG2, 0.222 µM): 64% | target mRNA inhibition (HepG2, 0.667 µM): 89% | target mRNA inhibition (HepG2, 2 µM): 94% | target mRNA inhibition (HepG2, 6 µM): 92%

TACACCACAAGCCAAAC (sugars e2 k2 d8 k2 e3, PS)
target mRNA inhibition (HepG2, 4 µM): 56%

TACAGCTAGCAGGATAA (sugars e2 k2 d9 k2 e2, PS)
target mRNA inhibition (HepG2, 0.1875 µM): 24% | target mRNA inhibition (HepG2, 0.75 µM): 71% | target mRNA inhibition (HepG2, 3 µM): 85% | target mRNA inhibition (HepG2, 4 µM): 86% | target mRNA inhibition (HepG2, 12 µM): 98%

TACAGGGTTTTTATTCA (sugars e2 k2 d8 k2 e3, PS)
target mRNA inhibition (HepG2, 5 µM): 13%

TACAGGTCATTGAAACA (sugars e2 k2 d8 k2 e3, PS)
target mRNA inhibition (HepG2, 5 µM): 26%

TACAGGTCATTGAAACA (sugars e3 k2 d7 k2 e3, PS)
target mRNA inhibition (HepG2, 3 µM): 9%

TACCCATCTGTGATTTA (sugars e2 k2 d8 k2 e3, PS)
target mRNA inhibition (HepG2, 5 µM): 29%

TACCCATCTGTGATTTAAGT (sugars e5 d10 e5, PS)
target mRNA inhibition (HepG2, 5 µM): 50%

TACTTTCCTTCTGCTCG (sugars e3 k2 d7 k2 e3, PS)
target mRNA inhibition (HepG2, 3 µM): 14%

TAGACACATCGGCCACACCA (sugars e5 d10 e5, PS)
target mRNA inhibition (HepG2, 5 µM): 46% and 36%

TAGAGGATTAAAGTGAG (sugars e3 k2 d7 k2 e3, PS)
target mRNA inhibition (HepG2, 3 µM): 21%

TAGGCCAGACCTCCGCGCCT (sugars e5 d10 e5, PS)
target mRNA inhibition (HepG2, 4 µM): 33%

TATTCACAGGCTTGAAT (sugars e2 k2 d8 k2 e3, PS)
target mRNA inhibition (HepG2, 5 µM): 24%

TATTCACAGGCTTGAAT (sugars e2 k2 d9 k2 e2, PS)
target mRNA inhibition (HepG2, 5 µM): 11%

TATTCACAGGCTTGAAT (sugars e3 k2 d7 k2 e3, PS)
target mRNA inhibition (HepG2, 3 µM): 0%

TATTGGGCGATCCCAAT (sugars e2 k2 d8 k2 e3, PS)
target mRNA inhibition (HepG2, 4 µM): 19%

TATTGGGCGATCCCAAT (sugars e2 k2 d9 k2 e2, PS)
target mRNA inhibition (HepG2, 4 µM): 6%

TCAGGATACATTTCTACAGC (sugars e5 d10 e5, PS)
target mRNA inhibition (HepG2, 0.1875 µM): 13% | target mRNA inhibition (HepG2, 0.75 µM): 42% | target mRNA inhibition (HepG2, 3 µM): 75% | target mRNA inhibition (HepG2, 5 µM): 70% | target mRNA inhibition (HepG2, 12 µM): 92%

TCAGTTTCTCACTACAG (sugars e2 k2 d8 k2 e3, PS)
target mRNA inhibition (HepG2, 5 µM): 25%

TCATAATAAGTGCCATACAG (sugars e5 d10 e5, PS)
target mRNA inhibition (HepG2, 5 µM): 0%

TCATCTGCTTTTTCATG (sugars e3 k2 d7 k2 e3, PS)
target mRNA inhibition (HepG2, 3 µM): 71%

TCATTGAAACAGACATT (sugars e3 k2 d7 k2 e3, PS)
target mRNA inhibition (HepG2, 3 µM): 10%

TCCAAGGGAATGTTTAT (sugars e2 k2 d8 k2 e3, PS)
target mRNA inhibition (HepG2, 4 µM): 27%

TCCAAGGGAATGTTTAT (sugars e2 k2 d9 k2 e2, PS)
target mRNA inhibition (HepG2, 4 µM): 57%

TCCAAGTGATCATAAAT (sugars e2 k2 d9 k2 e2, PS)
target mRNA inhibition (HepG2, 5 µM): 39%

TCCTTTGGCCCACCGTG (sugars e3 k2 d7 k2 e3, PS)
target mRNA inhibition (HepG2, 3 µM): 39%

TCTACAGCTAGCAGGAT (sugars e2 k2 d9 k2 e2, PS)
target mRNA inhibition (HepG2, 0.1875 µM): 27% | target mRNA inhibition (HepG2, 0.75 µM): 61% | target mRNA inhibition (HepG2, 3 µM): 85% | target mRNA inhibition (HepG2, 4 µM): 83% | target mRNA inhibition (HepG2, 12 µM): 96%

TCTCACTACAGGTACTT (sugars e2 k2 d9 k2 e2, PS)
target mRNA inhibition (HepG2, 5 µM): 46%

TCTCCAACATGCCTCTC (sugars e3 k2 d7 k2 e3, PS)
target mRNA inhibition (HepG2, 3 µM): 10%

TCTCTTCATCCTTTGGC (sugars e3 k2 d7 k2 e3, PS)
target mRNA inhibition (HepG2, 3 µM): 14%

TCTGACAAGTTTAATAC (sugars e2 k2 d8 k2 e3, PS)
target mRNA inhibition (HepG2, 5 µM): 33%
